{"source": "paper PMC12586182", "about": "(Frontiers in Oncology, 2025)", "key": {"BLK": {"biological_target": "T1, BLK (Homo sapiens, UniProt P51451)", "T1 construct": "purchased Carna Biosciences", "T1 sequence (P51451 whole entry)": "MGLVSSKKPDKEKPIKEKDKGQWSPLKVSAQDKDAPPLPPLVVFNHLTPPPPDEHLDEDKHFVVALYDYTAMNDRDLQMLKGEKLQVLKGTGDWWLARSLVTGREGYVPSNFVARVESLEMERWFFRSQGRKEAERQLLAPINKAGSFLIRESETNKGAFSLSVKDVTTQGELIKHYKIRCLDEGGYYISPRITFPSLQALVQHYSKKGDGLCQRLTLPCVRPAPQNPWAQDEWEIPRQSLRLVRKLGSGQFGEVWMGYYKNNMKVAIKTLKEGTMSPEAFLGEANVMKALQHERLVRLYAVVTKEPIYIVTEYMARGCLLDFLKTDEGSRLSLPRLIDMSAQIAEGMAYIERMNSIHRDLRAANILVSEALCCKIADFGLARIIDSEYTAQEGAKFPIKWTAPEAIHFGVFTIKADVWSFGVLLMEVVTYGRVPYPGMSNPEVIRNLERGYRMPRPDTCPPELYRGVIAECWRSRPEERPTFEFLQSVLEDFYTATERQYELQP", "experiment": "Kinase panel profiling at 1 µmol/L (mobility shift assay, Carna)", "assay_type": "biochemical", "settings": "1 µmol/L of BTK inhibitor"}, "FLT3": {"biological_target": "T2, FLT3 (Homo sapiens, UniProt P36888)", "T2 construct": "purchased Carna Biosciences", "T2 sequence (P36888 27-993)": "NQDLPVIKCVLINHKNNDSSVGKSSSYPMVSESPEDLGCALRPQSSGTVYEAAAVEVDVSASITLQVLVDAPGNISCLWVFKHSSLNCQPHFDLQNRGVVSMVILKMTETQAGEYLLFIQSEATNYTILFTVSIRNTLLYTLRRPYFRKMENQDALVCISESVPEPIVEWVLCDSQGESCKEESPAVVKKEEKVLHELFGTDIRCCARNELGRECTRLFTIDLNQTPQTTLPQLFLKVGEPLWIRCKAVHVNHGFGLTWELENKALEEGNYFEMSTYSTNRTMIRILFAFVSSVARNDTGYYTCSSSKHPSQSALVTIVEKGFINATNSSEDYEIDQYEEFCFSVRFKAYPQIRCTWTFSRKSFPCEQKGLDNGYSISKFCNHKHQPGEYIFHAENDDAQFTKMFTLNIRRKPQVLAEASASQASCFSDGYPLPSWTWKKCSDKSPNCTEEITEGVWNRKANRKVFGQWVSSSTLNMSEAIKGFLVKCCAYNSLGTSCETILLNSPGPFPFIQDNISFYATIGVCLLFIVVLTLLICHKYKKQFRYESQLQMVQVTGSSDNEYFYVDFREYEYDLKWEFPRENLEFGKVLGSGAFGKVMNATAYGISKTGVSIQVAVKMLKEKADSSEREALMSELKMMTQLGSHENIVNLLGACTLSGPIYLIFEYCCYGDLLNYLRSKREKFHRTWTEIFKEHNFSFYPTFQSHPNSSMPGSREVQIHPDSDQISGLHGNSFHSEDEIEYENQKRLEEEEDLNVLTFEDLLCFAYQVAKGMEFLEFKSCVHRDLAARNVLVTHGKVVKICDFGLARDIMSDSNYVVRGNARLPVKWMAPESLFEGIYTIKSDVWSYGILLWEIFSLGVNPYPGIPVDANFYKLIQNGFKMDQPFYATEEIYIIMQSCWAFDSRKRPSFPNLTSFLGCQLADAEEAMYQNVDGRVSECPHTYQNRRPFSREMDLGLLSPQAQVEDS", "experiment": "Kinase panel profiling at 1 µmol/L (mobility shift assay, Carna)", "assay_type": "biochemical", "settings": "1 µmol/L of BTK inhibitor"}, "MER": {"biological_target": "T3, MER (Homo sapiens, UniProt Q12866)", "T3 construct": "purchased Carna Biosciences", "T3 sequence (Q12866 21-999)": "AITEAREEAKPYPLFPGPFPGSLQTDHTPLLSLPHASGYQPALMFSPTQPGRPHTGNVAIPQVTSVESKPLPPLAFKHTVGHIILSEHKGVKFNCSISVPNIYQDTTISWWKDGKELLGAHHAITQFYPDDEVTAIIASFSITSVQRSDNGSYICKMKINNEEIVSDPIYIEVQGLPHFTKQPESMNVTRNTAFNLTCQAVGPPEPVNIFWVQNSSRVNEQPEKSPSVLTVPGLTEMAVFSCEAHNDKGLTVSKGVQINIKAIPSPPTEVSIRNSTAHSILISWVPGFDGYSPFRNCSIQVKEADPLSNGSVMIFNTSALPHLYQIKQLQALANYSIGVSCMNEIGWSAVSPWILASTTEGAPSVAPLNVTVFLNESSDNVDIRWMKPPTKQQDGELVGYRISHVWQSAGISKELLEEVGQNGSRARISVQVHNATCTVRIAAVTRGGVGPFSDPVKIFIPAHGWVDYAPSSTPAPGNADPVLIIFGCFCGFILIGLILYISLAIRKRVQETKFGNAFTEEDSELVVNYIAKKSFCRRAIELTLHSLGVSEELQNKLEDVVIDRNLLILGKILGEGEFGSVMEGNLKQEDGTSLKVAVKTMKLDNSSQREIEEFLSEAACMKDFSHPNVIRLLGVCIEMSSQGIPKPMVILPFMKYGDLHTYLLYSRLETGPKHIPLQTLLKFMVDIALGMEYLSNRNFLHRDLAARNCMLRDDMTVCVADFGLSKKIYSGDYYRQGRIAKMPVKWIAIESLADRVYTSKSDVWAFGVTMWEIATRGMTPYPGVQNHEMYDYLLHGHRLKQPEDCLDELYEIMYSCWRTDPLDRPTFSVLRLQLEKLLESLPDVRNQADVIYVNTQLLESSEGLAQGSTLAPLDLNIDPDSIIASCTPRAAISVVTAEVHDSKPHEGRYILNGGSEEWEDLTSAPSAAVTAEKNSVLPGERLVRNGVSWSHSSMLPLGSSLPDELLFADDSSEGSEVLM", "experiment": "Kinase panel profiling at 1 µmol/L (mobility shift assay, Carna)", "assay_type": "biochemical", "settings": "1 µmol/L of BTK inhibitor"}, "PIM3": {"biological_target": "T4, PIM3 (Homo sapiens, UniProt Q86V86)", "T4 construct": "purchased Carna Biosciences", "experiment": "Kinase panel profiling at 1 µmol/L (mobility shift assay, Carna)", "assay_type": "biochemical", "settings": "1 µmol/L of BTK inhibitor"}, "RSK3": {"biological_target": "T5, RSK3 (Homo sapiens, UniProt Q15349)", "T5 construct": "purchased Carna Biosciences", "T5 sequence (Q15349 whole entry)": "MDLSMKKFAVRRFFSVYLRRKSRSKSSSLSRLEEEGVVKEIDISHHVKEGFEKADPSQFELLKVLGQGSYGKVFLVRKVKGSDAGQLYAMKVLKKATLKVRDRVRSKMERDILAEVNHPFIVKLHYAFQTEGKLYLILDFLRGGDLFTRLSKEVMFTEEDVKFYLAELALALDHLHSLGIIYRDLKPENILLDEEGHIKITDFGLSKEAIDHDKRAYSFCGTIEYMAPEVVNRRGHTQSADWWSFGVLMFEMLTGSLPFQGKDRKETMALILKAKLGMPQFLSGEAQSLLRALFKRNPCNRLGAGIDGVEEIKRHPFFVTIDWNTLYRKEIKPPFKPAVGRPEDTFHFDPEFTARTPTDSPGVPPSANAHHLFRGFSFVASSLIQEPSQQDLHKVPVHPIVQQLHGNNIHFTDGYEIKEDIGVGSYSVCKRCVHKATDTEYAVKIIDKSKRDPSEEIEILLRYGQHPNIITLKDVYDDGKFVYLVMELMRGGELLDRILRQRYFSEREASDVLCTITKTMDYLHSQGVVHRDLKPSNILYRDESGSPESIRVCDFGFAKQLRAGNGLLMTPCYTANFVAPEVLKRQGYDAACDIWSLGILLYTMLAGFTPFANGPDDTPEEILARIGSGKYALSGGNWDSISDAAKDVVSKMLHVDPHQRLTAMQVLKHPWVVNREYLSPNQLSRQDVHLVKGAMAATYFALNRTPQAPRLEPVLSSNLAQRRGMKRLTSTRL", "experiment": "Kinase panel profiling at 1 µmol/L (mobility shift assay, Carna)", "assay_type": "biochemical", "settings": "1 µmol/L of BTK inhibitor"}, "SRPK2": {"biological_target": "T6, SRPK2 (Homo sapiens, UniProt P78362)", "T6 construct": "purchased Carna Biosciences", "T6 sequence (P78362 whole entry)": "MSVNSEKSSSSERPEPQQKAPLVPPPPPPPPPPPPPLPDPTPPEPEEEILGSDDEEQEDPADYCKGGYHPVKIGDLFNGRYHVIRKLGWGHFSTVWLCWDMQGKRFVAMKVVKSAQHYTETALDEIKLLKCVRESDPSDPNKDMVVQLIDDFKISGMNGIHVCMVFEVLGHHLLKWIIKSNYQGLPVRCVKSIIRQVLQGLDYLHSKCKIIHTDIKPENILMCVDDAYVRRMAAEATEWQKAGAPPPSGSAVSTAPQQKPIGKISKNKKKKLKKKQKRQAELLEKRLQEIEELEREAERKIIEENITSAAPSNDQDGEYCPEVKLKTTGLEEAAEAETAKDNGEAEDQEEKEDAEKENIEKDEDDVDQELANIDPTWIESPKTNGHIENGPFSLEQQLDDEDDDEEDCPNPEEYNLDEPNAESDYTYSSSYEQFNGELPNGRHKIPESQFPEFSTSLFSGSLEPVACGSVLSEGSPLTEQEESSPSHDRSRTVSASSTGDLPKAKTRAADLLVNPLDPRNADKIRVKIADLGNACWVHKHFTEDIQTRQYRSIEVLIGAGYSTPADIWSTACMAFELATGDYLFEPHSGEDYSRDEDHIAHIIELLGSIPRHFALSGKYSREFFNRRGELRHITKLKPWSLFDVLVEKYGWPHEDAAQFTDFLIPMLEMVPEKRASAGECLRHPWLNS", "experiment": "Kinase panel profiling at 1 µmol/L (mobility shift assay, Carna)", "assay_type": "biochemical", "settings": "1 µmol/L of BTK inhibitor"}, "TSSK3": {"biological_target": "T7, TSSK3 (Homo sapiens, UniProt Q96PN8)", "T7 construct": "purchased Carna Biosciences", "T7 sequence (Q96PN8 1-268)": "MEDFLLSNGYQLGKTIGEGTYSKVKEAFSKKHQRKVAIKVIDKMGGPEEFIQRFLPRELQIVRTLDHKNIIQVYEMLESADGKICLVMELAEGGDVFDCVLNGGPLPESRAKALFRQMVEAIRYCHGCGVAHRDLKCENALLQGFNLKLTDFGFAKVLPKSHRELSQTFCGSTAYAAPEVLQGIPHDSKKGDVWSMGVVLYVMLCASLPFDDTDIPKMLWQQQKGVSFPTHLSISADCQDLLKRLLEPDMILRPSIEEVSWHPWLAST", "experiment": "Kinase panel profiling at 1 µmol/L (mobility shift assay, Carna)", "assay_type": "biochemical", "settings": "1 µmol/L of BTK inhibitor"}, "SPHK1": {"biological_target": "T8, SPHK1 (Homo sapiens, UniProt Q9NYA1)", "T8 construct": "purchased Carna Biosciences", "T8 sequence (Q9NYA1 whole entry)": "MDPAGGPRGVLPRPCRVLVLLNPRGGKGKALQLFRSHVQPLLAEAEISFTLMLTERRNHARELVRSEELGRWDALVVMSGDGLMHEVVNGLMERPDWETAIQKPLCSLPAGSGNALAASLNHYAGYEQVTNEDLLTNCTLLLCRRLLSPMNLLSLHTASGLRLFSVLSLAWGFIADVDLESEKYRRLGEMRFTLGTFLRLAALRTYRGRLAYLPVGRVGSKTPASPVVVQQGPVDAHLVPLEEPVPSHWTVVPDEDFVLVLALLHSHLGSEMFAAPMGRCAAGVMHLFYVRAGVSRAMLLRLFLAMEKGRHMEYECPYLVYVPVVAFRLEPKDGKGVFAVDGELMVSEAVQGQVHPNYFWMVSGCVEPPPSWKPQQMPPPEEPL", "experiment": "Kinase panel profiling at 1 µmol/L (mobility shift assay, Carna)", "assay_type": "biochemical", "settings": "1 µmol/L of BTK inhibitor"}, "ERK2": {"biological_target": "ERK2 (Homo sapiens, UniProt P28482)", "sequence (P28482 whole entry)": "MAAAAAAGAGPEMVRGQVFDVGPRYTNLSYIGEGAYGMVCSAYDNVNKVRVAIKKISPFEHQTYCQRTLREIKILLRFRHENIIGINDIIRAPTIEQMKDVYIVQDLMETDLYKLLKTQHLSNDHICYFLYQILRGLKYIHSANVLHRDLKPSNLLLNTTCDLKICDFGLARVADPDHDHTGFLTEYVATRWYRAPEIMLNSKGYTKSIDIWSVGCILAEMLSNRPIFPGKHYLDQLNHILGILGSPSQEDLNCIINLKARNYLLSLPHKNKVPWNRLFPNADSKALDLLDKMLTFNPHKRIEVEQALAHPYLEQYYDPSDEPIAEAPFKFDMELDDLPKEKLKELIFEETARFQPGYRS", "experiment": "Kinase enzyme activity assay (mobility shift assay, Carna)", "settings": "for Percentage inhibition of kinase enzyme activity: Erk2, 1 µmol/L of BTK inhibitor"}, "EGFR": {"biological_target": "EGFR (Homo sapiens, UniProt P00533)", "sequence (P00533 25-1210)": "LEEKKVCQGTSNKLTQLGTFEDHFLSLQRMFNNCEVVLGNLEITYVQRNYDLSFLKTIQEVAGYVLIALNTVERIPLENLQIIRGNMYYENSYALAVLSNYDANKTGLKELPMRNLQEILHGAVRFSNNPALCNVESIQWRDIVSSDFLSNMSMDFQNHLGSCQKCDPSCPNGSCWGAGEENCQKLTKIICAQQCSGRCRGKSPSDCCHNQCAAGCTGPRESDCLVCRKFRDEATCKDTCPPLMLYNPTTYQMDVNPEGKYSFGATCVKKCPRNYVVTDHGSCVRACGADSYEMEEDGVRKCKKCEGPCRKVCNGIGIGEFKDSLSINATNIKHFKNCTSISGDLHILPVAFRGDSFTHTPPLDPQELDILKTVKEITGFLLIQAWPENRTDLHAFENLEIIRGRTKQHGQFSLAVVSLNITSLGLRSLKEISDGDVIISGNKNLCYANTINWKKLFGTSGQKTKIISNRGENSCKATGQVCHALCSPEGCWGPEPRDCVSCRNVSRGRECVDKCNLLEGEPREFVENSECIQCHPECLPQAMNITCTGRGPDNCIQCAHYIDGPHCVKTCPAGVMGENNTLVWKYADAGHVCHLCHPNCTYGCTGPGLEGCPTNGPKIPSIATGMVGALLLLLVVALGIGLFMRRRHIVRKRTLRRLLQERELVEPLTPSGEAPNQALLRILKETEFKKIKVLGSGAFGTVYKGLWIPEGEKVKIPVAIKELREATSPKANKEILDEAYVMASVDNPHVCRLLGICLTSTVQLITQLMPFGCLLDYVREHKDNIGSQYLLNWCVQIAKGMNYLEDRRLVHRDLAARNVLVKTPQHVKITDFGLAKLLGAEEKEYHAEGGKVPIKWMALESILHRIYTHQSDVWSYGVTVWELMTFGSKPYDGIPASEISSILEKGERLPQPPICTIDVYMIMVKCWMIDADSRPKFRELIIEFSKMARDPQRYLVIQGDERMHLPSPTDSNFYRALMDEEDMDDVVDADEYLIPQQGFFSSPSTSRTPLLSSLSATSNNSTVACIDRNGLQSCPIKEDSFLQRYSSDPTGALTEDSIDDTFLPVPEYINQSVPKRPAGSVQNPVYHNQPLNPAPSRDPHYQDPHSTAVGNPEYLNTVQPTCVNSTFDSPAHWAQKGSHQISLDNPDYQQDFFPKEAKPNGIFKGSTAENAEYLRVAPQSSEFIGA", "experiment": "Kinase panel profiling at 1 µmol/L (mobility shift assay, Carna)", "settings": "for Percentage inhibition of kinase enzyme activity: EGFR, 1 µmol/L of BTK inhibitor"}}}
{"smiles": "CC#CC(=O)N1CCC[C@H]1c1nc(-c2ccc(C(=O)Nc3ccccn3)cc2)c2c(N)nccn12", "note": "[acalabrutinib]", "values": [{"measurement": "Percentage inhibition of kinase enzyme activity", "setting": "BLK", "result": 8.43, "unit": "%"}, {"measurement": "Percentage inhibition of kinase enzyme activity", "setting": "FLT3", "result": 3.27, "unit": "%"}, {"measurement": "Percentage inhibition of kinase enzyme activity", "setting": "MER", "result": -3.37, "unit": "%"}, {"measurement": "Percentage inhibition of kinase enzyme activity", "setting": "PIM3", "result": -0.0376, "unit": "%"}, {"measurement": "Percentage inhibition of kinase enzyme activity", "setting": "RSK3", "result": 1.13, "unit": "%"}, {"measurement": "Percentage inhibition of kinase enzyme activity", "setting": "SRPK2", "result": 0.69, "unit": "%"}, {"measurement": "Percentage inhibition of kinase enzyme activity", "setting": "TSSK3", "result": -7.85, "unit": "%"}, {"measurement": "Percentage inhibition of kinase enzyme activity", "setting": "SPHK1", "result": -3.15, "unit": "%"}, {"measurement": "Percentage inhibition of kinase enzyme activity", "setting": "ERK2", "result": -2.02, "unit": "%"}, {"measurement": "Percentage inhibition of kinase enzyme activity", "setting": "EGFR", "result": 19.39, "unit": "%"}]}
{"smiles": "C=CC(=O)N1CCC[C@@H](n2nc(-c3ccc(Oc4ccccc4)cc3)c3c(N)ncnc32)C1", "note": "[ibrutinib]", "values": [{"measurement": "Percentage inhibition of kinase enzyme activity", "setting": "BLK", "result": 101.19, "unit": "%"}, {"measurement": "Percentage inhibition of kinase enzyme activity", "setting": "FLT3", "result": 62.77, "unit": "%"}, {"measurement": "Percentage inhibition of kinase enzyme activity", "setting": "PIM3", "result": -0.24, "unit": "%"}, {"measurement": "Percentage inhibition of kinase enzyme activity", "setting": "RSK3", "result": 8.80, "unit": "%"}, {"measurement": "Percentage inhibition of kinase enzyme activity", "setting": "SRPK2", "result": 3.01, "unit": "%"}, {"measurement": "Percentage inhibition of kinase enzyme activity", "setting": "TSSK3", "result": -3.87, "unit": "%"}, {"measurement": "Percentage inhibition of kinase enzyme activity", "setting": "SPHK1", "result": -3.38, "unit": "%"}, {"measurement": "Percentage inhibition of kinase enzyme activity", "setting": "ERK2", "result": -6.90, "unit": "%"}]}
{"smiles": "O=C(c1ccc(Oc2ccccc2)cc1Cl)c1c[nH]c2ncnc(N[C@@H]3CC[C@@H](CO)OC3)c12", "note": "[nemtabrutinib]", "values": [{"measurement": "Percentage inhibition of kinase enzyme activity", "setting": "BLK", "result": 102.70, "unit": "%"}, {"measurement": "Percentage inhibition of kinase enzyme activity", "setting": "FLT3", "result": 99.30, "unit": "%"}, {"measurement": "Percentage inhibition of kinase enzyme activity", "setting": "MER", "result": 29.53, "unit": "%"}, {"measurement": "Percentage inhibition of kinase enzyme activity", "setting": "PIM3", "result": -5.55, "unit": "%"}, {"measurement": "Percentage inhibition of kinase enzyme activity", "setting": "RSK3", "result": 19.54, "unit": "%"}, {"measurement": "Percentage inhibition of kinase enzyme activity", "setting": "SRPK2", "result": 1.38, "unit": "%"}, {"measurement": "Percentage inhibition of kinase enzyme activity", "setting": "TSSK3", "result": 2.56, "unit": "%"}, {"measurement": "Percentage inhibition of kinase enzyme activity", "setting": "SPHK1", "result": -5.57, "unit": "%"}, {"measurement": "IC50", "setting": "ERK2", "result": 505, "unit": "nM"}, {"measurement": "Inhibition of ERK2", "setting": "ERK2", "result": "did not inhibit"}, {"measurement": "Percentage inhibition of kinase enzyme activity", "setting": "ERK2", "result": 67.16, "unit": "%"}, {"measurement": "Percentage inhibition of kinase enzyme activity", "setting": "EGFR", "result": 99.77, "unit": "%"}]}
{"smiles": "COc1ccc(F)cc1C(=O)NCc1ccc(-c2nn([C@@H](C)C(F)(F)F)c(N)c2C(N)=O)cc1", "note": "[pirtobrutinib]", "values": [{"measurement": "Percentage inhibition of kinase enzyme activity", "setting": "BLK", "result": 30.87, "unit": "%"}, {"measurement": "Percentage inhibition of kinase enzyme activity", "setting": "FLT3", "result": -4.18, "unit": "%"}, {"measurement": "Percentage inhibition of kinase enzyme activity", "setting": "MER", "result": -2.75, "unit": "%"}, {"measurement": "Percentage inhibition of kinase enzyme activity", "setting": "PIM3", "result": 1.44, "unit": "%"}, {"measurement": "Percentage inhibition of kinase enzyme activity", "setting": "RSK3", "result": 1.65, "unit": "%"}, {"measurement": "Percentage inhibition of kinase enzyme activity", "setting": "SRPK2", "result": -2.34, "unit": "%"}, {"measurement": "Percentage inhibition of kinase enzyme activity", "setting": "TSSK3", "result": -1.40, "unit": "%"}, {"measurement": "Percentage inhibition of kinase enzyme activity", "setting": "SPHK1", "result": -10.15, "unit": "%"}, {"measurement": "Percentage inhibition of kinase enzyme activity", "setting": "ERK2", "result": 6.64, "unit": "%"}, {"measurement": "Percentage inhibition of kinase enzyme activity", "setting": "EGFR", "result": 85.26, "unit": "%"}, {"measurement": "inhibition at 1 µM", "setting": "EGFR; read-out: Inhibition of EGFR", "result": "> 75", "unit": "%"}]}
{"smiles": "C=CC(=O)N1CCC([C@@H]2CCNc3c(C(N)=O)c(-c4ccc(Oc5ccccc5)cc4)nn32)CC1", "note": "[zanubrutinib]", "values": [{"measurement": "Percentage inhibition of kinase enzyme activity", "setting": "BLK", "result": 98.41, "unit": "%"}, {"measurement": "Percentage inhibition of kinase enzyme activity", "setting": "FLT3", "result": 6.34, "unit": "%"}, {"measurement": "Percentage inhibition of kinase enzyme activity", "setting": "MER", "result": -2.35, "unit": "%"}]}
